# In PubChem BioAssay (NCI):
#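 Cells were grown in 96-well plates and exposed to each compound for 48 hours at five concentrations; endpoints were interpolated linearly between bracketing concentrations, or set to the highest concentration if not reached. GI50 marks 50% less growth. TGI denotes the concentration required for complete inhibition of growth.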
# Columns and labels:
# Test in all cases: growth of human tumour cells (NCI), 48 h
# OVCAR-8 ovarian = test system: OVCAR-8 ovarian
# MDA-MB-231 breast = test system: MDA-MB-231 breast
# SW-620 colon = test system: SW-620 colon
# EKVX NSCLC = test system: EKVX NSCLC
# RPMI-8226 leukemia = test system: RPMI-8226 leukemia
# M14 melanoma = test system: M14 melanoma
# SN12C renal = test system: SN12C renal
# OVCAR-5 ovarian = test system: OVCAR-5 ovarian
# SK-MEL-5 melanoma = test system: SK-MEL-5 melanoma
# K-562 leukemia = test system: K-562 leukemia
# HCT-116 colon = test system: HCT-116 colon
# UACC-257 melanoma = test system: UACC-257 melanoma
# HCT-15 colon = test system: HCT-15 colon
# NCI/ADR-RES ovarian = test system: NCI/ADR-RES ovarian
# U251 CNS = test system: U251 CNS
# KM12 colon = test system: KM12 colon
# MCF7 breast = test system: MCF7 breast
# HL-60(TB) leukemia = test system: HL-60(TB) leukemia
# ACHN renal = test system: ACHN renal
# A549 NSCLC = test system: A549 NSCLC
# HOP-62 NSCLC = test system: HOP-62 NSCLC
# NCI-H23 lung = test system: NCI-H23 lung
# NCI-H460 lung = test system: NCI-H460 lung
# SK-OV-3 ovarian = test system: SK-OV-3 ovarian
# OVCAR-3 ovarian = test system: OVCAR-3 ovarian
# HS 578T breast = test system: HS 578T breast
# T-47D breast = test system: T-47D breast
# COLO 205 colon = test system: COLO 205 colon
# HOP-92 NSCLC = test system: HOP-92 NSCLC
# SF-539 CNS = test system: SF-539 CNS
# LOX IMVI melanoma = test system: LOX IMVI melanoma
# 786-0 renal = test system: 786-0 renal
# CAKI-1 renal = test system: CAKI-1 renal
# UACC-62 melanoma = test system: UACC-62 melanoma
# SF-268 CNS = test system: SF-268 CNS
# UO-31 renal = test system: UO-31 renal
# TK-10 renal = test system: TK-10 renal
# PC-3 prostate = test system: PC-3 prostate
# SF-295 CNS = test system: SF-295 CNS
# DU-145 prostate = test system: DU-145 prostate
# SNB-19 CNS = test system: SNB-19 CNS
# BT-549 breast = test system: BT-549 breast
# MDA-MB-435 = test system: MDA-MB-435
smiles,measurement,setting,value
CCSc1nc2[nH]c(=S)[nH]c(=S)c2c(-c2ccc(OC)c(OC)c2)c1C#N,GI50,OVCAR-8 ovarian,18.9 µM
same,TGI,OVCAR-8 ovarian,> 50 µM
same,GI50,MDA-MB-231 breast,9.75 µM
same,TGI,MDA-MB-231 breast,40.3 µM
same,GI50,SW-620 colon,26.5 µM
same,TGI,SW-620 colon,> 50 µM
same,GI50,EKVX NSCLC,17 µM
same,TGI,EKVX NSCLC,> 50 µM
same,GI50,RPMI-8226 leukemia,16.8 µM
same,TGI,RPMI-8226 leukemia,> 50 µM
same,GI50,M14 melanoma,15.2 µM
same,TGI,M14 melanoma,> 50 µM
same,GI50,SN12C renal,16.9 µM
same,TGI,SN12C renal,> 50 µM
same,GI50,OVCAR-5 ovarian,> 50 µM
same,TGI,OVCAR-5 ovarian,> 50 µM
same,GI50,SK-MEL-5 melanoma,6.86 µM
same,TGI,SK-MEL-5 melanoma,21.5 µM
same,GI50,K-562 leukemia,9.68 µM
same,TGI,K-562 leukemia,24.3 µM
same,GI50,HCT-116 colon,18.2 µM
same,TGI,HCT-116 colon,> 50 µM
same,GI50,UACC-257 melanoma,16.5 µM
same,TGI,UACC-257 melanoma,43.7 µM
same,GI50,HCT-15 colon,16.5 µM
same,TGI,HCT-15 colon,> 50 µM
same,GI50,NCI/ADR-RES ovarian,14.7 µM
same,TGI,NCI/ADR-RES ovarian,32.8 µM
same,GI50,U251 CNS,17.8 µM
same,TGI,U251 CNS,> 50 µM
same,GI50,KM12 colon,21.9 µM
same,TGI,KM12 colon,> 50 µM
same,GI50,MCF7 breast,22.1 µM
same,TGI,MCF7 breast,> 50 µM
same,GI50,HL-60(TB) leukemia,16.1 µM
same,TGI,HL-60(TB) leukemia,> 50 µM
same,GI50,ACHN renal,17.2 µM
same,TGI,ACHN renal,> 50 µM
same,GI50,A549 NSCLC,14.8 µM
same,TGI,A549 NSCLC,> 50 µM
same,GI50,HOP-62 NSCLC,19.8 µM
same,TGI,HOP-62 NSCLC,> 50 µM
same,GI50,NCI-H23 lung,18.6 µM
same,TGI,NCI-H23 lung,> 50 µM
same,GI50,NCI-H460 lung,21 µM
same,TGI,NCI-H460 lung,> 50 µM
same,GI50,SK-OV-3 ovarian,21.1 µM
same,TGI,SK-OV-3 ovarian,> 50 µM
same,GI50,OVCAR-3 ovarian,11 µM
same,TGI,OVCAR-3 ovarian,34.6 µM
same,GI50,HS 578T breast,13.2 µM
same,TGI,HS 578T breast,45.8 µM
same,GI50,T-47D breast,23.5 µM
same,TGI,T-47D breast,> 50 µM
same,GI50,COLO 205 colon,14.2 µM
same,TGI,COLO 205 colon,45.2 µM
same,GI50,HOP-92 NSCLC,19 µM
same,TGI,HOP-92 NSCLC,> 50 µM
same,GI50,SF-539 CNS,14.8 µM
same,TGI,SF-539 CNS,35.4 µM
same,GI50,LOX IMVI melanoma,14.5 µM
same,TGI,LOX IMVI melanoma,> 50 µM
same,GI50,786-0 renal,16.5 µM
same,TGI,786-0 renal,> 50 µM
same,GI50,CAKI-1 renal,17.4 µM
same,TGI,CAKI-1 renal,> 50 µM
same,GI50,UACC-62 melanoma,14.3 µM
same,TGI,UACC-62 melanoma,> 50 µM
same,GI50,SF-268 CNS,15.9 µM
same,TGI,SF-268 CNS,46.4 µM
same,GI50,UO-31 renal,11.7 µM
same,TGI,UO-31 renal,36 µM
same,GI50,TK-10 renal,43.5 µM
same,TGI,TK-10 renal,> 50 µM
same,GI50,PC-3 prostate,22.6 µM
same,TGI,PC-3 prostate,> 50 µM
same,GI50,SF-295 CNS,18.9 µM
same,TGI,SF-295 CNS,> 50 µM
same,GI50,DU-145 prostate,21.8 µM
same,TGI,DU-145 prostate,> 50 µM
same,GI50,SNB-19 CNS,21.4 µM
same,TGI,SNB-19 CNS,> 50 µM
same,GI50,BT-549 breast,14.6 µM
same,TGI,BT-549 breast,46.8 µM
same,GI50,MDA-MB-435,10.5 µM
same,TGI,MDA-MB-435,42.5 µM
